Broadly, the logP is a log measure of how a compound divides between an organic and an aqueous phase. Higher therefore signals higher lipophilicity. By Ki is commonly meant a measure of affinity in units of concentration, obtained from inhibition or displacement. The IC50 is the concentration needed to halve the response being measured.

Where “and” joins values, the source holds several entries; their conditions need not be identical. Identical values can stand only once. Like-named read-outs stand apart in the source and are kept apart here.

The values below come from paper PMC5045939, “Comparison of [^11C]TZ1964B and [^18F]MNI659 for PET imaging brain PDE10A in nonhuman primates” (Pharmacology Research & Perspectives, 2016).

The target of data set [1] is PDE10A. The following applies: cited from earlier work.
Data set [2] can be described thus: Log P measurement, 1-octanol/PBS pH 7.4. Format: physicochemical. The following applies: 1-octanol / 0.1 mol/L PBS pH 7.4, Log D7.4 taken as Log P. On the procedure:
Log P was measured according to the previous report (Li et al. 2013b), by adding different volumes of [^11C]TZ1964B or [^18F]MNI659 into a mixture of 1‐octanol (3 mL) and 0.1 mol/L phosphate‐buffered saline (PBS, pH 7.4, 3 mL). The mixture was vortexed and then centrifuged. Then, 2 mL organic layer was mixed with 1 mL 1‐octanol and 3 mL PBS buffer. The resulting mixture was vortexed and centrifuged again. Then 1 mL of the organic layer and 1 mL of the aqueous layer were separated and loaded in a gamma counter. The results were corrected for background radiation and physical decay. The partition coefficient Log D7.4, which equals Log P, was calculated as the decimal logarithm the ratio of cpm/mL of 1‐octanol to that of PBS.

Data set [3] can be described thus: radiometabolite analysis of NHP arterial plasma by HPLC. Format: in vivo, cynomolgus monkey. The following applies: 60 min post injection, n = 1. The procedure:
The radiometabolite analysis was performed according to previous reports (Tu et al. 2011, 2015). Arterial blood samples (1.2–1.5 mL) were collected in a heparinized syringe at 2, 5, 15, 30, and 60 min (for [^11C]TZ1964B) or 5, 15 30, 60, 90, and 120 min (for [^18F]MNI659) postinjection of each radiotracer. Plasma (400 μL) was collected by centrifugation of the whole blood and mixed with ice‐cold methanol (0.92 mL) to deproteinate and extract the parent compound and radiolabeled metabolites. After centrifugation, the supernatant was mixed with water (1/1, v/v), and loaded onto a HPLC system with an Agilent SB C‐18 analytical HPLC column (250 mm × 4.6 mm, 5 μ) and a UV detector with 254 nm wavelength. The mobile phase was acetonitrile/0.1 mol/L ammonium formate buffer pH 4.5, (52/48, v/v) with a flow rate of 1.0 mL/min. The eluted fractions were collected for 16 min at 1 min intervals; the radioactivity of in each fraction was counted in a well counter, and results were corrected for background radiation and physical decay.

Data set [4] deals with PDE10A. Put plainly: microPET imaging of NHP brain, reference-based kinetic analysis and AUC ratio. Format: in vivo, cynomolgus monkey. The following applies: for AUC ratio: 60-120 min; for AUC ratio / BPND-Logan / BPND-SRTM / AUC ratio (Stri/Cere) / R1 / k2: mean ± SD; for AUC ratio (Stri/Cere): NHP striatum to cerebellum, 60-120 min data; for time of peak (max SUV) striatal uptake: post injection, averaged SUV curves. The procedure: PET imaging studies were carried out on two adult male cynomolgus monkeys, weighing on 7–8 kg. Subject A underwent three sets of double scans, and Subject B underwent one set of double scans. Animals were prepared for microPET studies as previously reported (Liu et al. 2015). About 1.5–2.5% isoflurane inhalation anesthesia was maintained throughout the microPET imaging sessions. A 20‐gage plastic catheter was inserted into a limb vein to permit hydration and injection of the radiotracer. Arterial blood was collected through another 20‐gage plastic catheter which was placed into a femoral artery.
The imaging studies of [^11C]TZ1964B and [^18F]MNI659 in the NHP brain through double scans were done using a MicroPET Focus 220 scanner (Concorde/CTI/Siemens Microsystems, Knoxville, TN). For all the double scans, [^11C]TZ1964B studies were performed in the morning and [^18F]MNI659 in the afternoon, with an interval of ~3 h between the injection of each tracer. Prior to each PET acquisition, a 45‐min transmission scan for attenuation correction was performed following a 10 min transmission that was used to check the position of the brain within the scanner. Subsequently, 296–370 MBq of [^11C]TZ1964B or [^18F]MNI659 was intravenously injected, and a 120 min dynamic (3 × 1‐min frames, 4 × 2‐min frames, 3 × 3‐min frames, and 20 × 5‐min frames) PET scan was acquired.
The PET images were processed according to the previous report (Liu et al. 2015). Briefly, emission scans were corrected and reconstructed using filtered back projection as described previously (Miller et al. 1989). The final reconstructed resolution was 2.00 mm full width at half maximum (FWHM) for all three dimensions (axial) at center of the field of view. The actual field of view is 25.8 cm diameter and a 7.6 cm axial length. The reconstructed PET images was co‐registered with magnetization‐prepared rapid gradient echo (MP‐RAGE) MR images using Automated Image Registration (AIR) (Woods et al. 1993), and superimposed using Analyze 10.0 (AnalyzeDirect, Overland Park, KS) for quality control. For quantitative analyses, three‐dimensional regions of interest (ROIs) for cerebellum (Subject A: 583 voxels; Subject B: 750 voxels, the voxel size is 1.858 mm × 1.858 mm × 0.796 mm = 2.75 μL), striatum (A: 695 voxels; B: 1158 voxels), frontal cortex (A: 263 voxels; B: 225 voxels), midbrain (A: 64 voxels; B: 118 voxels), and hippocampus (A: 68 voxels; B: 64 voxels) were identified on MRI images and then transformed into PET images using the co‐registration transformation matrix. The ROIs for each animal were kept fixed for all subsequent studies once identified on a baseline scan. Time–activity curves (TACs) for each ROI were then obtained from the dynamic PET images. Standardized uptake value (SUV) of each tracer was calculated and standardized to the body weight and the injected dose of radioactivity.
Regional tracer uptake was quantified using two different reference‐based kinetic methods: Logan Reference (LoganREF) model (Logan et al. 1990, 1996; Innis et al. 2007; Liu et al. 2015) and simplified reference tissue model (SRTM) (Lammertsma and Hume 1996; Gunn et al. 1997; Innis et al. 2007; Liu et al. 2015). According to the LoganREF model, the distribution volume ratio (DVR) of each ROI was calculated using a MATLAB (Mathworks Inc., Natick, MA). The nondisplaceable binding potential (BPND) was then estimated: BPND = DVR‐1. BPND and R1, k 2 values were also obtained from the SRTM model (Lammertsma and Hume 1996; Watabe et al. 1996).
We also calculated the area under the time–activity curve (AUC) for the striatal to cerebellar ratio (AUC‐striatum/AUC‐cerebellum); this is a simple model and input function‐independent method to quantify an index of tracer accumulation in the brain (Muller Herde et al. 2015). […] Ideally, the AUC ratio equals the DVR determined by LoganREF model (Muller Herde et al. 2015). […]

Data set [5] deals with PDE10A. The following applies: cited from earlier work. This is another data set of the same source.
Where [6] appears, read: Figure 1, no reference given, read-out: Kd.
The mark [7] stands for this setting: NHP frontal cortex to cerebellum.
Where [8] appears, read: NHP midbrain to cerebellum, n = 4 scans in 2 NHPs.
[9] abbreviates: NHP striatum, LoganREF model, cerebellum reference, n = 4 scans in 2 NHPs.
Where [10] appears, read: NHP striatum, SRTM, cerebellum reference, n = 4 scans in 2 NHPs.

In the case of `Cc1ccc2c(=O)n(-c3ccc(OCCF)cc3)c(CCN3C(=O)c4cccc(OC(C)C)c4C3=O)nc2c1` [MNI659], at PDE10A [1] (in vitro, given as Kd in Figure 1, ref Barret et al. 2014, read-out: binding potency for PDE10A), the Kd is 0.097 nM. The logP in data set [2] was determined as 1.98.
In the case of `Cn1cc(-c2ccncc2)c(-c2ccc(OCc3nc4ccccc4cc3O[11CH3])cc2)n1` [[^11C]TZ1964B, 3‐[^11C]methoxy‐2‐((4‐(1‐methyl‐4‐(pyridin‐4‐yl)‐1H‐pyrazol‐3‐yl)phenoxy)methyl)‐quinoline], in data set [3], the “percentage of parent compound in plasma” value is reported as ~ 70%. For the same compound, on PDE10A [1] (setting [6]), the Kd was 1.25 ± 0.2 nM. Besides, the logP in data set [2] came to 1.98 ± 0.09. For the same compound, the AUC ratio was determined as 1.38 ± 0.13 in the data set with PDE10A [4] (setting [7]), 1.35 ± 0.41 with PDE10A [4] (NHP hippocampus to cerebellum) and 1.51 ± 0.47 in the data set on PDE10A [4] (setting [8]). The BPND-Logan in the data set with PDE10A [4] (NHP frontal cortex) was 0.15 ± 0.05; in the data set on PDE10A [4] (NHP hippocampus), 0.11 ± 0.25; in the data set on PDE10A [4] (NHP midbrain), 0.26 ± 0.20; in the data set with PDE10A [4] (setting [9]), 3.72 and 3.72 ± 0.62. Besides, the BPND-SRTM is 0.43 ± 0.28 in the data set on PDE10A [4] (NHP frontal cortex); 0.32 ± 0.50 in the data set with PDE10A [4] (NHP hippocampus); 0.57 ± 0.30 in the data set with PDE10A [4] (NHP midbrain); 4.39 and 4.39 ± 0.39 with PDE10A [4] (setting [10]). The “AUC ratio (Stri/Cere)” value in the data set on PDE10A [4] (n = 4 scans in 2 NHPs) is 5.87 and 5.87 ± 0.45. For the same compound, the R1 with PDE10A [4] (NHP striatum, SRTM) is listed as 1.16 ± 0.17. Also, the k2 with PDE10A [4] (NHP striatum, SRTM) came out at 0.13 ± 0.017 min⁻¹. Moreover, the “time of peak (max SUV) striatal uptake” value with PDE10A [4] (NHP striatum) was in the range of 40 to 60 min. Moreover, the Ki at PDE10A [5] (Figure 1, no reference given) is 0.4 ± 0.02 nM.
As for `Cc1ccc2c(=O)n(-c3ccc(OCC[18F])cc3)c(CCN3C(=O)c4cccc(OC(C)C)c4C3=O)nc2c1` [[^18F]MNI659, 2‐(2‐(3‐(4‐(2‐[^18F]fluoroethoxy)phenyl)‐7‐methyl‐4‐oxo‐3,4‐dihydroquinazolin‐2‐yl)ethyl)‐4‐isopropoxyisoindoline‐1,3‐dione], the “percentage of parent compound in plasma” value in data set [3] is ~ 50%. In addition, on PDE10A [1] (setting [6]), the Kd was 0.097 nM. Besides, in data set [2], the log partition coefficient (logP) is 1.98 ± 0.06. For the same compound, the AUC ratio in the data set on PDE10A [4] (setting [7]) was 1.37 ± 0.12; in the data set with PDE10A [4] (NHP hippocampus to cerebellum) it was 1.08 ± 0.23; in the data set with PDE10A [4] (setting [8]), 2.59 ± 0.42. For the same compound, the BPND-Logan in the data set on PDE10A [4] (NHP frontal cortex) is 0.29 ± 0.10; in the data set on PDE10A [4] (NHP hippocampus), 0.11 ± 0.18; in the data set with PDE10A [4] (NHP midbrain), 1.02 ± 0.14; in the data set on PDE10A [4] (setting [9]), 5.08 and 5.08 ± 1.62. Besides, the BPND-SRTM with PDE10A [4] (NHP frontal cortex) was 0.29 ± 0.09; in the data set on PDE10A [4] (NHP hippocampus), 0.16 ± 0.20; with PDE10A [4] (NHP midbrain), 1.11 ± 0.16; with PDE10A [4] (setting [10]), 5.33 and 5.33 ± 1.36. In addition, in the data set with PDE10A [4] (n = 4 scans in 2 NHPs), the “AUC ratio (Stri/Cere)” value was 7.60 and 7.60 ± 2.68. Also, the “striatal K2 value relative to [^11C]TZ1964B” value in the data set on PDE10A [4] (NHP striatum, SRTM) is reported as “twofold”. The R1 with PDE10A [4] (NHP striatum, SRTM) was determined as 1.20 ± 0.20. In the data set on PDE10A [4] (NHP striatum, SRTM), the k2 was found to be 0.28 ± 0.13 min⁻¹. The “time of peak (max SUV) striatal uptake” value in the data set with PDE10A [4] (NHP striatum) was “about 10 min”.
`COc1cc2ccccc2nc1COc1ccc(-c2nn(C)cc2-c2ccncc2)cc1` [TZ1964B] came in with a log partition coefficient (logP) in data set [2] of 1.98. In addition, the IC50 in the data set on PDE10A [5] (in vitro binding potency, ref Li et al. 2013a, read-out: IC50 toward PDE10A) is 0.4 ± 0.02 nM.
